From ChEMBL document CHEMBL1287744, “Potent and selective 5-LO inhibitor bearing benzothiophene pharmacophore: discovery of MK-5286” (Bioorg Med Chem Lett, 2010)
Calls of active or inactive are those of the source. The rule behind the calls is not given here.

How the values were obtained:
[1] = target: T1, Polyunsaturated fatty acid 5-lipoxygenase (Homo sapiens, UniProt P09917); test: Inhibition of human recombinant 5-lipoxygenase assessed as arachidonic acid oxidation
T1 sequence (P09917 whole entry): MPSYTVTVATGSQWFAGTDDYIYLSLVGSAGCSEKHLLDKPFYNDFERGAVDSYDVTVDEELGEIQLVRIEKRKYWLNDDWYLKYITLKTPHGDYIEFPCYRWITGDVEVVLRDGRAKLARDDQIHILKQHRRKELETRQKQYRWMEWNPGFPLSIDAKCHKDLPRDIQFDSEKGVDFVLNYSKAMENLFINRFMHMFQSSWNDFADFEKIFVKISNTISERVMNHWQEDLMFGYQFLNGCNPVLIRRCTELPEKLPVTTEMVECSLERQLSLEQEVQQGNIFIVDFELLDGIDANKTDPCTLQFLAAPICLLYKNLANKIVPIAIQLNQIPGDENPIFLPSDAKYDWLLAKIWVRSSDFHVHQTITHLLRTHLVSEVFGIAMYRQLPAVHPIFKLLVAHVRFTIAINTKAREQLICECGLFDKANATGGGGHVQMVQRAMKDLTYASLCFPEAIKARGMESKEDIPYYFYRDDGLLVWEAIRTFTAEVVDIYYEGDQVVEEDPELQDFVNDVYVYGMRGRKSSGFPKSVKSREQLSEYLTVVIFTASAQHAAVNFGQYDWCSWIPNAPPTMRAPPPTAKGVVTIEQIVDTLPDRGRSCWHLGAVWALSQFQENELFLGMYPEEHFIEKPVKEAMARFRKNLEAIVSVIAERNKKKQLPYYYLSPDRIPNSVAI

[2] = target: Voltage-gated inwardly rectifying potassium channel KCNH2 (Homo sapiens, UniProt Q12809); test: Displacement of labeled MK-499 from human ERG
Chain of Voltage-gated inwardly rectifying potassium channel KCNH2 (Q12809 whole entry): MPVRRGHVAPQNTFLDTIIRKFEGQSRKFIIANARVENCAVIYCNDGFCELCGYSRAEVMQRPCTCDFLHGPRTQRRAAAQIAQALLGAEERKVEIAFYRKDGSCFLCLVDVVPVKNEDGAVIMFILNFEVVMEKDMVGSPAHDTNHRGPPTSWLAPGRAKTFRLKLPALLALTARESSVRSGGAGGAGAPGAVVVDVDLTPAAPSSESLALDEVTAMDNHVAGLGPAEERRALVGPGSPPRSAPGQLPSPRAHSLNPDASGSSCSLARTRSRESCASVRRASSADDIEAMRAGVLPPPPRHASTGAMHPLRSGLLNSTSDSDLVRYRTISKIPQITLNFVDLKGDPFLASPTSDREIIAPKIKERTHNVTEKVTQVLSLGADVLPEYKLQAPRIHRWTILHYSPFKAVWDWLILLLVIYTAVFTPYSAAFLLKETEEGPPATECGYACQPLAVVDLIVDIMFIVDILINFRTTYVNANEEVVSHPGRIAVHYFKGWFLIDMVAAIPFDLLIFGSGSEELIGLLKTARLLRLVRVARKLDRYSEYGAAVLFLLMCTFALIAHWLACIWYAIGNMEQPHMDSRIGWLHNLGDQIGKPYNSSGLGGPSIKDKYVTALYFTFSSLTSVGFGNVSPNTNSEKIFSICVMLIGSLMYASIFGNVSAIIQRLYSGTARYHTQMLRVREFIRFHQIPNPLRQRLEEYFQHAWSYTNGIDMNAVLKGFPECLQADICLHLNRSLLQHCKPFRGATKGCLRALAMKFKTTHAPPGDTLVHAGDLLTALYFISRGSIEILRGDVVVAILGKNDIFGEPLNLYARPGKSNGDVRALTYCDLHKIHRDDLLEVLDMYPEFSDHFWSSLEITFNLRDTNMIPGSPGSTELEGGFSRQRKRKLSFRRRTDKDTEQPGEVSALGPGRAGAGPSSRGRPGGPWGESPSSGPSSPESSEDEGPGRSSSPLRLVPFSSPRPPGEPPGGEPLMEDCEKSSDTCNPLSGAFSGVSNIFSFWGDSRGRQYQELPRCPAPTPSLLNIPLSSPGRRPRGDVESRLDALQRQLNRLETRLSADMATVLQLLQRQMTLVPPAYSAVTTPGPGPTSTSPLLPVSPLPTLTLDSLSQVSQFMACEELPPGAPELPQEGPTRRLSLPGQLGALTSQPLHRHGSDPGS

[3] = target: T1, Polyunsaturated fatty acid 5-lipoxygenase; test: Inhibition of 5-lipoxygenase in human whole blood assessed as inhibition of LTB4 production; assay type: tissue-based
[4] = Half life in rat at 5 mg/kg, iv and 20 mg/kg, po; assay type: ADME, organism-based; details: in vivo
[5] = Cmax in rhesus monkey at 5 mg/kg, iv and 4 mg/kg, po; assay type: ADME, organism-based, Macaca mulatta; details: in vivo
[6] = target: T2, Polyunsaturated fatty acid lipoxygenase ALOX12 (Homo sapiens, UniProt P18054); test: Inhibition of 12-lipoxygenase
T2 sequence (P18054 whole entry): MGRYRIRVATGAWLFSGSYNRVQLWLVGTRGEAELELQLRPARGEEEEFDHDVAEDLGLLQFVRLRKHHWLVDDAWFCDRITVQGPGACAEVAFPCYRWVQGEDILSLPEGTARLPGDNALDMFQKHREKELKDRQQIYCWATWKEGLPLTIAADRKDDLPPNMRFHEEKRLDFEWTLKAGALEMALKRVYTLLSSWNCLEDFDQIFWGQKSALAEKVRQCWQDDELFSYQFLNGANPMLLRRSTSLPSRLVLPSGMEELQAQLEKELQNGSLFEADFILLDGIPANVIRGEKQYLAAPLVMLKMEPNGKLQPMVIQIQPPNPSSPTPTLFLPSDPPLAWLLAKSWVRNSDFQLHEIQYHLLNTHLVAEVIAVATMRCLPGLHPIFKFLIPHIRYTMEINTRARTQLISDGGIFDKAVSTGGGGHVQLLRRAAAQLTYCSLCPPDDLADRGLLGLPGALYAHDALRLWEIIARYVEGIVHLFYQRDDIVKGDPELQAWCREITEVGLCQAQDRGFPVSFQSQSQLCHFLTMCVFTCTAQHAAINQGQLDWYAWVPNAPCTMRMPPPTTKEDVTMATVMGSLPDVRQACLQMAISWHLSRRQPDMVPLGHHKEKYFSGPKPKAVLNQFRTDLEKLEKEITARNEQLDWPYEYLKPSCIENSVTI

[7] = target: T3, Arachidonate 5-lipoxygenase-activating protein (Homo sapiens, UniProt P20292); test: (§1) Inhibition of 5-lipoxygenase activating protein
T3 sequence (P20292 whole entry): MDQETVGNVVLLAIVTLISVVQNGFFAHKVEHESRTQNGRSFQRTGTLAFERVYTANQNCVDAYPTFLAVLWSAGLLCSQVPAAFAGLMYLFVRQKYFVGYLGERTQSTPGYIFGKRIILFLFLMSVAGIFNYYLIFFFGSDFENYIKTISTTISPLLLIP

[8] = Half life in dog at 5 mg/kg, iv and 4 mg/kg, po; assay type: ADME, organism-based, Canis lupus familiaris; details: in vivo
[9] = Oral bioavailability in dog at 4 mg/kg; assay type: ADME, organism-based, Canis lupus familiaris; details: in vivo
[10] = Half life in rhesus monkey at 5 mg/kg, iv and 4 mg/kg, po; assay type: ADME, organism-based, Macaca mulatta; details: in vivo
[11] = target: T4, Polyunsaturated fatty acid lipoxygenase ALOX15 (Homo sapiens, UniProt P16050); test: Inhibition of 15-lipoxygenase
T4 sequence (P16050 whole entry): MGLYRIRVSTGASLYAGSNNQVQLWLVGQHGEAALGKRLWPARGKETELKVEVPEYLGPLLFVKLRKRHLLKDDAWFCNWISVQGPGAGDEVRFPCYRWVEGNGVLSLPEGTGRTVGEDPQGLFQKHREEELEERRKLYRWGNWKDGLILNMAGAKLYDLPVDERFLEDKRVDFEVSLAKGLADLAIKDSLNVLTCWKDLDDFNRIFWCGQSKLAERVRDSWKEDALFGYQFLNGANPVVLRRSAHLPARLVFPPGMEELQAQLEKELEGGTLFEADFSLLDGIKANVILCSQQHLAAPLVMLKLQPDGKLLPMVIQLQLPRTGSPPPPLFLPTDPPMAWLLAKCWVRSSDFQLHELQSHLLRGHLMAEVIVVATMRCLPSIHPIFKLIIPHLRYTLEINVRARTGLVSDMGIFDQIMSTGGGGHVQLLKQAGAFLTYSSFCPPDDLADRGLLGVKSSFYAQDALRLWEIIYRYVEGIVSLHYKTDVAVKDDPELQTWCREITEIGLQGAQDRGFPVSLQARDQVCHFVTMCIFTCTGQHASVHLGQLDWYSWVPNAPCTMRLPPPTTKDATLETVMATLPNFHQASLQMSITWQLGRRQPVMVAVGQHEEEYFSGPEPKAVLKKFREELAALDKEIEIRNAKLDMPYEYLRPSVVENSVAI

[12] = Oral bioavailability in rhesus monkey at 4 mg/kg; assay type: ADME, organism-based, Macaca mulatta; details: in vivo
[13] = Oral bioavailability in rat at 20 mg/kg; assay type: ADME, organism-based; details: in vivo
[14] = Cmax in dog at 5 mg/kg, iv and 4 mg/kg, po; assay type: ADME, organism-based, Canis lupus familiaris; details: in vivo
[15] = Cmax in rat at 5 mg/kg, iv and 20 mg/kg, po; assay type: ADME, organism-based; details: in vivo
[16] = target: T5, Arachidonate 5-lipoxygenase-activating protein (Homo sapiens) (UniProt P20292); test: as §1
T5 sequence (whole entry): T3 sequence (P20292 whole entry)

Row | IC50 [1] [nM] | IC50 [3] [nM] | Compound | Ki ([2]; read-out: Ki) [nM] | also measured
1 | 88 | 161 | CCC(O)(c1cn(Cc2ccc3c(-c4ccccc4)c(C(C)O)sc3c2)nn1)C(F)(F)F (stereo not given) | 3800 | 
2 | > 10000 | > 20000 | CCC(O)(c1cn(Cc2ccc3c(-c4ccccc4)c(C(=O)O)sc3c2)nn1)C(F)(F)F (stereo not given) | > 20000 | 
3 | 1890 | 1840 | CCC(O)(c1cn(Cc2ccc3c(-c4ccccc4)c(C(=O)N(C)C)sc3c2)nn1)C(F)(F)F (stereo not given) | > 20000 | 
4 | 40 | 598 | CCC(O)(c1cn(Cc2ccc3c(-c4ccccc4)csc3c2)nn1)C(F)(F)F (stereo not given) |  | Ki [2]: Not Active
5 | 39 | 31 | CC[C@](O)(c1cn(Cc2ccc3c(-c4cccc(F)c4)c(C(N)=O)sc3c2)nn1)C(F)(F)F | 14000 | 
6 | 11 | 84 | CCC(O)(c1cn(Cc2ccc3c(-c4ccccc4)c(C(C)=O)sc3c2)nn1)C(F)(F)F (stereo not given) | 4400 | 
7 | 28 | 32 | CC[C@](O)(c1cn(Cc2ccc3c(-c4ccccc4)c(C(N)=O)sc3c2)nn1)C(F)(F)F |  | 
8 | 55 | 21 | CC[C@](O)(c1cn(Cc2ccc3c(-c4ccc(F)cc4)c(C(N)=O)sc3c2)nn1)C(F)(F)F | 13000 | half-life [4]: 7.9 h; Cmax [5]: 1.4 µM; IC50 [6]: > 20000 nM; IC50 [7]: > 20000 nM; half-life [8]: 29 h; bioavailability [9]: 120%; half-life [10]: 22 h; IC50 [11]: > 20000 nM; bioavailability [12]: 66%; bioavailability [13]: 114%; Cmax [14]: 6.7 µM; Cmax [15]: 19.4 µM
9 | > 10000 | > 20000 | CC[C@](O)(c1cn(Cc2ccc3c(-c4ccc(F)cc4)c(C(=O)O)sc3c2)nn1)C(F)(F)F | > 20000 | inhibition [16]: inactive; inhibition (INH) ([2]; human): Not Active
10 | 55 | 70 | CCC(O)(c1cn(Cc2ccc3c(-c4ccccc4)c(C(N)=O)sc3c2)nn1)C(F)(F)F (stereo not given) |  | 
11 | 1160 | 154 | CC[C@@](O)(c1cn(Cc2ccc3c(-c4ccc(F)cc4)c(C(N)=O)sc3c2)nn1)C(F)(F)F | 11000 | 
12 | 19 | 64 | CCC(O)(c1cn(Cc2ccc3c(-c4ccccc4)c(CO)sc3c2)nn1)C(F)(F)F (stereo not given) | 13000 | 
13 | 198 | 392 | CCC(O)(c1cn(Cc2ccc3c(-c4ccccc4)c(C(C)(C)O)sc3c2)nn1)C(F)(F)F (stereo not given) | 2600 | 
14 | 223 | 263 | CCC(O)(c1cn(Cc2ccc3c(-c4ccccc4)c(C(=O)NC)sc3c2)nn1)C(F)(F)F (stereo not given) |  | 
15 | 7.9 | 260 | CCC(O)(c1cn(Cc2ccc3c(-c4ccccc4)c(C(=O)OC)sc3c2)nn1)C(F)(F)F (stereo not given) |  | 
